Values joined by “and” are separate entries in the source; they are usually repeats but may differ in a detail not shown here. Equal entries are not always repeated.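 1) Cells in 96-well plates. 2) Compound, 48 h, 5 concentrations. 3) Linear interpolation between surrounding doses. 4) Unreached endpoint = highest concentration. GI50 is the concentration that inhibits growth by half.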 Active and inactive are the calls of the source. No stated cut-off is given here; in the data, active = GI50 up to about 1.1 µM and inactive = higher.

Holding throughout (assay): inhibition of tumour cell growth, NCI panel, 48 h
Experiment [1] concerns SK-MEL-28.
The subject of experiment [2] is CAKI-1.
Experiment [3] has as its system HOP-92.
In experiment [4] the test system is NCI-H460.
The test system of experiment [5] is HL-60.
In experiment [6] the test system is A549.
For experiment [7], the system named is Hs-578T.
For experiment [8], the system named is U-251.
Experiment [9] concerns DU-145.
Experiment [10] has as its system SN12C.
Experiment [11] deals with SW-620.
Experiment [12] relates to MCF7.
Experiment [13] deals with NCI-H226.
For experiment [14], the system named is SNB-75.
The subject of experiment [15] is 786-0.
The subject of experiment [16] is SR.
The subject of experiment [17] is CCRF-CEM.
In experiment [18] the test system is RPMI-8226.
The test system of experiment [19] is UACC-62.
Experiment [20] deals with K562.

`COc1cc([C@H]2OC[C@H]3[C@@H]2CO[C@@H]3c2cc(OC)c3c(c2)OCO3)cc(OC)c1OC`: the GI50 in [1] is > 100 µM (inactive); in [2], 52.7 µM (inactive) and 25 µM (inactive); in [3] it was 46.9 µM (inactive) and 60.7 µM (inactive); in [4] it was 33.7 µM (inactive) and 33.9 µM (inactive); in experiment [5] it was 40 µM (inactive) and > 10 µM (inactive); in [6] it was 46 µM (inactive) and 55.2 µM (inactive). The GI50 in experiment [7] was 51.3 µM (inactive) and 59.3 µM (inactive); in experiment [8] it was 83 µM (inactive) and 57.9 µM (inactive); in [9], 81.3 µM (inactive); in experiment [10], 96.8 µM (inactive); in experiment [11] it was > 100 µM (inactive); in experiment [12], 60.5 µM (inactive) and 50.5 µM (inactive). Also, the GI50 in [13] was 43.5 µM (inactive) and 47.4 µM (inactive); in experiment [14], 46.6 µM (inactive) and 84.5 µM (inactive); in experiment [15] it was > 100 µM (inactive); in experiment [16] it was 17.3 µM (inactive) and 42.1 µM (inactive); in experiment [17], 45.9 µM (inactive) and > 10 µM (inactive); in [18] it was 28 µM (inactive) and 35 µM (inactive). The GI50 in experiment [19] is 39.9 µM (inactive) and 67.3 µM (inactive); in [20], 39.4 µM (inactive) and 73.3 µM (inactive).
For the compound `COc1ccc(N/N=C/C2=CC(C)(C)C(C#N)(C#N)C(O)=C2C#N)cc1`, the GI50 was 91.2 µM (inactive) in experiment [1]; 36.6 µM (inactive) in experiment [2]; 17.1 µM (inactive) in experiment [3]; 20.9 µM (inactive) in [4]; 37.7 µM (inactive) in [5]; 25.6 µM (inactive) in experiment [6]. Further, the GI50 in [7] was 44.7 µM (inactive); in experiment [8], 45.1 µM (inactive); in experiment [9], 77.8 µM (inactive); in [10] it was 47.4 µM (inactive); in [11] it was 40.9 µM (inactive); in experiment [12], 35.8 µM (inactive). Moreover, the GI50 was 77.8 µM (inactive) in [13]; > 100 µM (inactive) in [14]; 38.5 µM (inactive) in experiment [15]; 11.5 µM (inactive) in [16]; 35.5 µM (inactive) in experiment [17]; 35.6 µM (inactive) in [18]. Besides, the GI50 in [19] was 62.2 µM (inactive); in experiment [20], 16.1 µM (inactive).
As to `CC1CN1C(=O)NCCCCCCNC(=O)N1CC1C` (stereo not given), the GI50 in experiment [1] is > 100 µM (inactive); in experiment [2] it was 48.4 µM (inactive); in experiment [3] it was > 93.5 µM (inactive); in experiment [4] it was 2.61 µM (inactive); in [5] it was 11.9 µM (inactive); in [6] it was 31.1 µM (inactive). In addition, the GI50 in experiment [7] was > 100 µM (inactive); in [8] it was 65.3 µM (inactive); in experiment [9], 22.2 µM (inactive); in [10] it was 61.8 µM (inactive); in experiment [11], > 100 µM (inactive); in [12], 70.3 µM (inactive). Besides, the GI50 is > 75.7 µM (inactive) in experiment [13]; 62.7 µM (inactive) in experiment [14]; 51.6 µM (inactive) in experiment [15]; 3.11 µM (inactive) in experiment [16]; 14.7 µM (inactive) in [17]; > 100 µM (inactive) in [18]. In addition, the values for the GI50 in experiment [19] and in experiment [20] were 31.8 µM (inactive) and > 97.5 µM (inactive), respectively.
For the compound `Cc1c(C#N)c2nnn(-c3ccc(Cl)cc3)c(=O)n2c1-c1ccccc1`, the GI50 in experiment [1] was 10.7 µM (inactive); in experiment [2], 0.251 µM (active); in experiment [3], 0.474 µM (active); in experiment [4] it was 0.0991 µM (active); in experiment [5], 0.0752 µM (active); in [6], 0.166 µM (active). Besides, the GI50 is 0.158 µM (active) in [7]; 0.0815 µM (active) in [8]; 0.0895 µM (active) in experiment [9]; 0.107 µM (active) in [10]; 0.113 µM (active) in [11]; 0.42 µM (active) in [12]. The GI50 is 0.114 µM (active) in experiment [13]; 0.275 µM (active) in [14]; 0.12 µM (active) in experiment [15]; < 0.0212 µM (active) in [16]; 0.0991 µM (active) in [17]; 0.16 µM (active) in experiment [18]. Besides, the results for the GI50 in experiment [19] and in [20] were 0.149 µM (active) and 0.0586 µM (active), respectively.
`CN(O)C(=O)c1ccc(OCc2cccc(Cl)c2)cc1`: the GI50 in [1] is 40.7 µM (inactive); in experiment [2], 18.5 µM (inactive); in experiment [3], 58.5 µM (inactive); in experiment [4], 9.4 µM (inactive); in experiment [5] it was 6.12 µM (inactive); in experiment [6] it was 16 µM (inactive). Besides, the GI50 in experiment [7] is 71.3 µM (inactive); in experiment [8], 15.2 µM (inactive); in experiment [9], 27.4 µM (inactive); in [10], 18 µM (inactive); in [11], 32.8 µM (inactive); in experiment [12], 32.4 µM (inactive). In addition, the GI50 in [13] is 19.5 µM (inactive); in experiment [14] it was 47.1 µM (inactive); in [15], 12.4 µM (inactive); in experiment [16], 4.91 µM (inactive); in experiment [17] it was 5.12 µM (inactive); in experiment [18], 14.8 µM (inactive). Also, the GI50 was 15.4 µM (inactive) in [19] and 22.6 µM (inactive) in [20].
Turning to `COc1ccc(C2C(C=O)C(N3CCN(C)CC3)=Nc3nc4ccccc4n32)cc1` (stereo not given), the GI50 in [1] is 17 µM (inactive); in experiment [2] it was 19.1 µM (inactive); in [3], 4.83 µM (inactive); in experiment [4], 25.2 µM (inactive); in experiment [5] it was 2.09 µM (inactive); in experiment [6], 17.2 µM (inactive). The GI50 was 33 µM (inactive) in experiment [7]; 17.7 µM (inactive) in [8]; 17.8 µM (inactive) in [9]; 17.9 µM (inactive) in experiment [10]; 17.3 µM (inactive) in experiment [11]; 13.2 µM (inactive) in experiment [12]. Also, the GI50 in [13] is 16.7 µM (inactive); in experiment [14] it was 11.8 µM (inactive); in experiment [15], 20 µM (inactive); in experiment [16] it was 0.0382 µM (active); in [17], 2.31 µM (inactive); in experiment [18], 2.35 µM (inactive). Besides, the GI50 in [19] is 14.1 µM (inactive); in experiment [20], 1.08 µM (active).
